Experimental data published in patent US20260184715A1, “NOVEL PYRROLO[1,2-d][1,2,4] TRIAZINONE DERIVATIVES AS NEGATIVE ALLOSTERIC MODULATORS OF MGLU7 RECEPTORS” (Neurosterix Pharma Sarl., priority 2022, published 2026).

Target: T1, human metabotropic glutamate 7 receptor (hmGlu7) (Homo sapiens, UniProt Q14831)
T1 construct: expressed in transfected cells
Assay: mGlu7 assay on HEK-expressing human mGlu7: fluorescent cell based-Ca2+ mobilization assay (FLIPR), inhibition of EC80 L-AP4 response
Details: HEK-293 cells expressing hmGlu7, EC80 L-AP4; mean of at least three independent experiments in duplicate; read-out: Ca^2+ Flux (mean IC50)
Text: mGlu7 Assay on HEK-Expressing Human mGLU7
The cDNA encoding the human metabotropic glutamate 7 receptor (hmGlu7), (accession number NM_181874.2, NCBI Nucleotide database browser), was subcloned into an expression vector containing also the hygromycin resistance gene. In parallel, the cDNA encoding a G protein allowing redirection of the activation signal to intracellular calcium flux was subcloned into a different expression vector containing also the Puromycin resistance gene. Transfection of both these vectors into HEK293 cells with PolyFect reagent (Qiagen) according to supplier's protocol, and hygromycin and puromycin treatment allowed selection of antibiotic resistant cells which had integrated stably one or more copies of the plasmids. Positive cellular clones expressing hmGlu7 were identified in a functional assay measuring changes in calcium fluxes in response to glutamate and L-AP4 or known mGlu7 orthosteric antagonists.
HEK-293 cells expressing hmGlu7 were maintained in media containing DMEM, Fetal Bovine Serum (10%), GlutaMAX™ (2 mM), penicillin (100 units/mL), streptomycin (100 μg/mL), geneticin (100 μg/mL) and hygromycin-B (40 μg/mL) and puromycin (1 μg/mL) at 37° C. with 5% CO2 in a humidified atmosphere.
Human mGlu7 HEK-293 cells were plated out 24 hours prior to a fluorescent cell-based calcium mobilization assay using FLIPR^384 assay (Molecular Device, Sunnyvale, CA, USA) in black-walled, clear-bottomed, poly-L-ornithine-coated 384-well plates at a density of 25,000 cells/well in a glutamine/glutamate free DMEM medium containing fetal bovine serum (10%), penicillin (100 units/mL), streptomycin (100 μg/mL) and doxycyline (1 μg/ml) at 37° C. with 5% CO2 in a humidified atmosphere.
On the day of the assay, the medium was aspirated and the cells were loaded with a 3 μM solution of Fluo4-AM (LuBioScience, Lucerne, Switzerland) in 0.03% pluronic acid. After 1 hour at 37° C./5% CO2, the non incorporated dye was removed by washing cell plate with the assay buffer. All assays were performed in a pH 7.4 buffered-Solution containing 20 mM HEPES, 143 mM NaCl, 6 mM KCl, 1 mM MgSO4, 1 mM CaCl2, 0.125 mM sulfinpyrazone and 0.1% glucose.
After 10 s of basal fluorescence recording, various concentrations of the compounds of the invention were added to the cells. Changes in fluorescence levels were first monitored for 180 s in order to detect any agonist activity of the compounds. Then the cells were stimulated by an EC80 L-AP4 concentration for an additional 110 s in order to measure inhibiting activities of the compounds of the invention. EC80 L-AP4 concentration is the concentration giving 80% of the maximal glutamate response.
The concentration-response curves of L-AP4 or representative compounds of the present invention were generated using the Prism GraphPad software (Graph Pad Inc, San Diego, USA). The curves were fitted to a four-parameter logistic equation:
(Y=Bottom+(Top−Bottom)/(1+10^((Log IC50−X)*Hill Slope)
allowing determination of IC50 values.
The Table 3 below represents the mean IC50 obtained from at least three independent experiments of selected molecules performed in duplicate.

T1 sequence (Q14831 35-922 isoform Q14831-2 limits assumed): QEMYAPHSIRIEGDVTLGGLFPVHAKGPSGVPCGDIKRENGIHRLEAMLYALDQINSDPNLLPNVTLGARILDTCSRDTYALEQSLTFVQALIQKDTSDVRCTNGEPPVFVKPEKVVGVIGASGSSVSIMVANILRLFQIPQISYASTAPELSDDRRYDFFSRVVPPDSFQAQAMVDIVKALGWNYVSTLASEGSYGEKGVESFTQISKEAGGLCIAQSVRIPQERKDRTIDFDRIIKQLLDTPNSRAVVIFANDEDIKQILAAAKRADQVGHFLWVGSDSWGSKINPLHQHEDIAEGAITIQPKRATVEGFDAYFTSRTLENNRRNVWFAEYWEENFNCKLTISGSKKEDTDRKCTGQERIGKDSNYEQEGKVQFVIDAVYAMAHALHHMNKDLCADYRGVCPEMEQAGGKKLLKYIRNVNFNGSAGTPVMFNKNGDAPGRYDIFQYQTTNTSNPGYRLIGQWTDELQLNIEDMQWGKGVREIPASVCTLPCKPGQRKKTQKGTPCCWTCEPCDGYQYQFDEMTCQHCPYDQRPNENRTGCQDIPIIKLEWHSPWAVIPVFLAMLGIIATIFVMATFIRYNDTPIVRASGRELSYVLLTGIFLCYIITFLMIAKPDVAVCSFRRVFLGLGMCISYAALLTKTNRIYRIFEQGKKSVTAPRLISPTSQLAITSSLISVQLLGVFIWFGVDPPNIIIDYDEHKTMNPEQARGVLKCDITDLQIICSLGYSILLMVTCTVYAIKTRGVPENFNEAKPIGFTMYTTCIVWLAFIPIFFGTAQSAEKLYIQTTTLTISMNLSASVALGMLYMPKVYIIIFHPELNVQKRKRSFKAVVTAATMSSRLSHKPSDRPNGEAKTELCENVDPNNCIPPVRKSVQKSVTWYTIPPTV

Row | Compound | IC50 [nM]
1 | Cc1c(-c2ccnc(OC(F)F)c2)c(C)n2c(=O)n(-c3ccccn3)ncc12 [1-140] | 100 to 1000
2 | Cc1c(-c2ccnc(OC(F)F)c2)c(C)n2c(=O)n(-c3ncccn3)ncc12 [1-141] | 1000 to 10000
3 | COc1ccc(-c2cc3cnn(-c4ccccn4)c(=O)n3c2C)cn1 [1-142] | 100 to 1000
4 | Cc1c(-c2cc3cnn(-c4ccccn4)c(=O)n3c2C)ccnc1OC1CC1 [1-143] | < 100

Second part, the compound after the results:

Row | IC50 [nM] | Compound
5 | 100 to 1000 | COc1ccc(-c2cc3cnn(-c4ncccn4)c(=O)n3c2C)cn1 [1-144]
6 | < 100 | Cc1c(-c2cc3cnn(-c4ncccn4)c(=O)n3c2C)ccnc1OC1CC1 [1-145]
7 | 100 to 1000 | Cc1c(-c2ccnc(OC(F)F)c2)cc2cnn(-c3ccccn3)c(=O)n12 [1-146]
8 | < 100 | Cc1c(-c2ccnc(OC(F)F)c2)cc2cnn(-c3ncccn3)c(=O)n12 [1-147]
